In publication PMC7617459, “Comparative Evaluation and Profiling of Chemical Tools for the Nuclear Hormone Receptor Family 2” (ACS pharmacology & translational science, 2025):

Key:
[1] = biological target: T1, TLX (Homo sapiens, UniProt Q9Y466); experiment: Gal4-hybrid reporter gene assay TLX; type: cell-based; conditions: selected test concentration (Figure 3)
T1 construct: encoding the hinge region and the LBD of the canonical isoform of the respective human nuclear receptors; expressed in transfected cells; host or cells: HEK293T
T1 sequence (Q9Y466 155-383 limits assumed): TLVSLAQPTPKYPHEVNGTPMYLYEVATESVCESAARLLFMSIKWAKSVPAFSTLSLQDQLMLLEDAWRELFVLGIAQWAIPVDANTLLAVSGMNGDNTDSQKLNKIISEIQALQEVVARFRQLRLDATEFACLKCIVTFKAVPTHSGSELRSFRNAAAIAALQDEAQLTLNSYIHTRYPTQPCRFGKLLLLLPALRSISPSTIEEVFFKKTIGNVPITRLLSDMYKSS
Protocol: (§1) HEK293T cells (German Collection of Microorganisms and Cell Culture GmbH, DSMZ) were cultured in Dulbecco’s modified Eagle’s medium (DMEM), high glucose supplemented with 10% fetal calf serum (FCS), sodium pyruvate (1 mM), penicillin (100 U/mL), and streptomycin (100 μg/mL) at 37 °C and 5% CO2 and seeded in 96-well plates (3 × 10^4 cells/well). The medium was changed to Opti-MEM without supplements, and the cells were transiently transfected with one pFA-CMV-hNR-LBD clone, pFR-Luc, and pRL-SV40 using Lipofectamine LTX reagent (Invitrogen, Thermo Fisher Scientific) according to the manufacturer’s instructions. Five hours after transfection, cells were incubated with the test compounds in Opti-MEM supplemented with penicillin (100 U/mL), streptomycin (100 μg/mL), and 0.1% DMSO. Each sample was set up in duplicates and tested in at least three independent experiments. After 16 h incubation, luciferase activity was measured using the Dual-Glo Luciferase Assay System (Promega) according to the manufacturer’s protocol on a Tecan Spark luminometer (Tecan Deutschland GmbH, Crailsheim, Germany). Firefly luminescence was divided by Renilla luminescence and multiplied by 1000 resulting in relative light units (RLUs) to normalize for transfection efficiency and cell growth. Fold activation was obtained by dividing the mean RLU of the test compound by the mean^a RLU of the untreated control, and relative activation was calculated by dividing the fold activation of a test sample by the fold activation of the respective reference agonist. Antagonistic effects were evaluated by coincubation of the test compound with the respective reference ligand.

[2] = test system: full-length TLX; conditions: reporter gene assay; read-out: IC50 (second value of cell; full-length TLX); cited from earlier work
[3] = test system: TLX LBD; conditions: FP assay, cited from earlier work
[4] = biological target: RARα (Homo sapiens, UniProt P10276); conditions: selected test concentration (Figure 3)
Sequence of RARα (P10276 183-417 limits assumed): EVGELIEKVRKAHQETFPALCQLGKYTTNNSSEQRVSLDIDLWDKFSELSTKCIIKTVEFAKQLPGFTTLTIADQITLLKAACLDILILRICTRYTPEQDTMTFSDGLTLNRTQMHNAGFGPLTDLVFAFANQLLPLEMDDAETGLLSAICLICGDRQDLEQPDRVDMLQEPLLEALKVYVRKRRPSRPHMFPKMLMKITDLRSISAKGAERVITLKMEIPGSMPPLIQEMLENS
Protocol: HEK293T cells (German Collection of Microorganisms and Cell Culture GmbH, DSMZ) were cultured in Dulbecco’s modified Eagle’s medium (DMEM), high glucose supplemented with 10% fetal calf serum (FCS), sodium pyruvate (1 mM), penicillin (100 U/mL), and streptomycin (100 μg/mL) at 37 °C and 5% CO2 and seeded in 96-well plates (3 × 10^4 cells/well). The medium was changed to Opti-MEM without supplements, and the cells were transiently transfected with one pFA-CMV-hNR-LBD clone, pFR-Luc, and pRL-SV40 using Lipofectamine LTX reagent (Invitrogen, Thermo Fisher Scientific) according to the manufacturer’s instructions. […] After 16 h incubation, luciferase activity was measured using the Dual-Glo Luciferase Assay System (Promega) according to the manufacturer’s protocol on a Tecan Spark luminometer (Tecan Deutschland GmbH, Crailsheim, Germany). Firefly luminescence was divided by Renilla luminescence and multiplied by 1000 resulting in relative light units (RLUs) to normalize for transfection efficiency and cell growth. Fold activation was obtained by dividing the mean RLU of the test compound by the mean^a RLU of the untreated control, and relative activation was calculated by dividing the fold activation of a test sample by the fold activation of the respective reference agonist. Antagonistic effects were evaluated by coincubation of the test compound with the respective reference ligand.

[5] = test system: RARs and RXRs; design: method as in PMID 32763139; conditions: cited from earlier work
[6] = test system: HEK293T cells; conditions: cited from earlier work
[7] = test system: TLX; conditions: reporter gene assay; read-out: IC50 (first value of cell; TLX/Gal4); cited from earlier work
[8] = test system: COS-7 cells; experiment: Multiplex toxicity assay; type: cell-based; conditions: 24 h, at active concentration
Protocol: COS-7 cells (DSMZ #ACC 60) were cultured at 37°C and 5% CO2 in DMEM high glucose medium supplemented with sodium pyruvate (1 mM), penicillin (100 U/mL), streptomycin (100 µg/mL), and 10% fetal calf serum (FCS). After aspirating the wells, the cells were seeded at 1x10^5 cells per well in complete culture medium. […] Each sample was prepared in at least 4 biologically independent replicates. After incubation for 24 h, the wells were aspirated and incubated for 30 min with stimulation medium containing 1 µM NucView® 405 fluorogenic caspase-3 substrate (#10405, Biotium, Fremont, USA) and Live-or-Dye Nuc-Fix Red (0.05x, Biotium, Inc., Fremont, CA, 1691 USA) to detect apoptosis and necrosis, respectively. After incubation, a total of 6 fluorescence images per well at 10x magnification were taken to detect NucView®-positive (Ex: 381–400 nm, Em: 414–450 nm) and Live-or-Dye-positive cells (Ex: 543−566 nm, Em: 580−611 nm) using on a Tecan Spark Cyto (Tecan Group AG). Reference readings for background correction and detection of auto-fluorescence were taken at 414–450 nm prior to staining. Thereafter, wells were aspirated, the cells were incubated for 3 h with 90 µL culture medium (0.2% FCS) and 10 µL Cell Counting Kit-8 solution (CCK-8, MedChem Express #HY-K0301), and absorbance was measured at 1, 2, and 3h of incubation at 450 nm on a Tecan Spark Cyto to assess metabolic activity of the cells. Before drug administration, after the first medium exchange, 24 h after drug administration, and after fluorescence imaging cell confluence was assessed using the Tecan Spark Cyto, to account for changes in cell confluence due to drug administration and cell handling. The number of apoptotic cells, metabolic activity, and changes in cell confluence in response to drug treatment were all normalized to the vehicle control of each biological replicate individually.

[9] = test system: ATF6; experiment: ATF6 activity assay; type: cell-based; conditions: tunicamycin treated Hela ATF6 reporter cells
Description: Next, we evaluated the potential impact of the NR2 modulator set on endoplasmic reticulum (ER) stress in an ATF6 activity assay (Fig. 4b). The activating transcription factor 6 (ATF6) participates in the unfolded protein response and is activated under ER stress.[164] Tunicamycin-induced ATF6 activity was not affected by RXR and TLX modulators but was reduced by the inverse PNR agonists 22 and 23.
Hela cells containing a Renilla luciferase reporter gene for ATF6 activity (ATF6 Leeporter™ Luciferase Reporter-HeLa Cell Line, Abeomics Inc.; #14-138ACL) were cultured in DMEM supplemented with 10% heat-inactivated FCS, penicillin (100 U/mL), streptomycin (100 μg/mL) and puromycin (3 µg/mL) at 37°C and 5% (v/v) CO2 and seeded in 96-well plates (1 × 10^5 per well). After 24 h, the cells were incubated with the test compounds solubilized with 0.1% DMSO in the same medium without puromycin. After 4 h of incubation, tunicamycin (100 ng/mL) was added. After another 18 h of incubation, cells were assayed for renilla luminescence using DualGlo reagent (Promega) on a Tecan SPARK Cyto (Tecan). Test samples were normalized to the 0.1% DMSO control.

[10] = biological target: MBP-PNR-LBD; design: method as in PMID 35508617; conditions: determined by UV absorption; cited from earlier work
[11] = test system: PNR protein levels; design: method as in PMID 35508617, PMID 19379737; conditions: retinoblastoma cells, 1 µM, Western blot; cited from earlier work
[12] = test system: MBP-NR2E1-LBD; design: method as in PMID 35508617; conditions: MS-based binding experiment; cited from earlier work
[13] = test system: nuclear receptors; experiment: Selectivity profiling in Gal4-hybrid reporter gene assay panel; type: cell-based, human; conditions: at active concentration
Protocol: Compounds were tested at concentrations around EC90 according to the literature or at the highest nontoxic concentration (from the multiplex toxicity assay). […] (b) Selectivity profiling of NR2 modulators in a representative panel of nuclear receptors outside the NR2 family. […] Effects <5% of the respective reference ligands were considered as not relevant and omitted. Only effects are shown that are statistically significant against VP16 ctrl (Figure S3); n = 3.
as §1

[14] = test system: PNR; design: method as in PMID 35508617; conditions: cited from earlier work
[15] = biological target: PNR mutations associated with Enhanced S-Cone Syndrome (ESCS); design: method as in PMID 35508617; conditions: cited from earlier work

CC1(C)CC=C(c2ccccc2)c2cc(/C=C/c3ccc(C(=O)O)cc3)ccc21 [compound 17]
TLX modulation [1]: not observed
IC50 [2]: 159 nM
effect on atrophin binding to TLX LBD [3]: displacement of atrophin
Kd ([3]; no precise value reported): ~1000 nM
RAR activation [4]: activated RAR
activity on RARs and RXRs [5]: agonism on RARs and RXRs
toxicity in HEK293T cells used for the reporter gene assays [6]: pronounced toxicity
IC50 [7]: 367 nM

C=CC1=C(C)/C(=C/C2=NC(=C\c3[nH]c(/C=C4\NC(=O)C(C)=C4C=C)c(C)c3CCC(=O)O)/C(CCC(=O)O)=C2C)NC1=O [compound 25, biliverdin]
cytotoxicity [8]: lack of cytotoxicity
tunicamycin-induced ATF6 activity [9]: slightly diminished
Kd [10]: 200 nM
PNR protein levels [11]: two-fold increase
interaction with MBP-NR2E1-LBD (TLX) [12]: no interaction
selectivity over other nuclear receptors [13]: Favorable selectivity profiles
PNR activation ([14]; reporter gene assay in 293F cells): approximately 3 fold
EC50 ([14]; reporter gene assay): 5 nM
Kd [15]: 9000 nM
